From patent US5091389A, “Lipophilic macrolide useful as an immunosuppressant” (Merck & Co., Inc., priority 1991, dated 1992)

Legend:
mouse T cells = test: Inhibition of T-cell proliferation (mouse T cells stimulated with ionomycin + PMA, tritiated-thymidine incorporation); type: cell-based; details: for Percent Inhibition of Proliferation / reversal of inhibitory activity by exogenous IL-2: mouse T cells; for reversal of inhibitory activity by exogenous IL-2: exogenous IL-2 (50 units/ml)
Excerpt: Biological activity as a immunosupressant can be measured in terms of inhibition of T-cell proliferation.

[1] = test system: heterotopic heart allografts; details: rats given heterotopic heart allografts, cited from earlier work
[2] = test system: heart, kidney, bowel, pancreas or other transplantation; details: in combination with Cyclosporin A; cited from earlier work
immune response = details: rats; cited from earlier work

Row | SMILES | Percent Inhibition of Proliferation (mouse T cells; 0.001 μM, ionomycin + PMA) | Percent Inhibition of Proliferation (mouse T cells; 0.01 μM, ionomycin + PMA) | Percent Inhibition of Proliferation (mouse T cells; 0.12 μM, ionomycin + PMA) | Percent Inhibition of Proliferation (mouse T cells; 1.2 μM, ionomycin + PMA) | Percent Inhibition of Proliferation (mouse T cells; 11.2 μM, ionomycin + PMA) | reversal of inhibitory activity by exogenous IL-2 (mouse T cells; ionomycin + PMA) | inhibition of proliferation of mouse T cells (qualitative) (mouse T cells; ionomycin + PMA) | toxicity ([1]; compared with what would be anticipated with FK-506) | immunosuppression in heart allograft recipients [1] | effect on amount of Cyclosporin A required [2] | effect on nephrotoxicity of Cyclosporin A [2] | inhibition of the response to allergic encephalomyelitis, adjuvant-induced arthritis and antibody production (immune response) | inhibition at 1.1 µM (mouse T cells; Mus musculus, T-cell, read-out: inhibited the proliferation)
1 | COC1CC2CCC(C)C(O)(O2)C(=O)C(=O)N2CCCCC2C(=O)OC(C(C)CC2CCC(O)C(OC)C2)CC(=O)C(C)/C=C(\C)C(O)C(O)C(=O)C(C)CC(C)/C=C/C=C/C=C/1C (centres unmarked) [29-desmethyl-rapamycin, 29-desmethyl rapamycin] | 7% | 32% | 49% | 59% | 88% | not reversed by exogenous IL-2 | found to inhibit the proliferation of mouse T cells |  |  |  |  |  | 
2 | CO[C@H]1C[C@@H]2CC[C@@H](C)[C@@](O)(O2)C(=O)C(=O)N2CCCC[C@H]2C(=O)O[C@H]([C@H](C)C[C@@H]2CC[C@@H](O)[C@H](OC)C2)CC(=O)[C@H](C)/C=C(\C)[C@@H](O)[C@@H](OC)C(=O)[C@H](C)C[C@H](C)/C=C/C=C/C=C/1C [rapamycin] |  |  |  |  |  | not reversed by exogenous IL-2 |  | less toxicity was said to be experienced than would be anticipated with FK-506 | immunosuppressive in rats given heterotopic heart allografts | reducing the amount of Cyclosporin A required to produce its immunosupressive effect | effectively reducing the nephrotoxicity inherent in treatment with Cyclosporin A | inhibiting the response to allergic encephalomyelitis,adjuvant-induced arthritis and antibody production in rats | 65%
